Experimental data as given in patent US20220073521A1, “PYRIMIDINE AND FIVE-MEMBERED NITROGEN HETEROCYCLE DERIVATIVE, PREPARATION METHOD THEREFOR, AND MEDICAL USES THEREOF” (Tuojie Biotech (Shanghai) Co., Ltd., priority 2018, published 2022).
Where two headings read alike, the source gives them in different places.

Assays:
p-ERK in KYSE-520 cells = assay: Determination of p-ERK in KYSE-520 cells (HTRF); format: cell-based
Experimental: KYSE-520 cells (Nanjing Cobioer Biosciences CO., Ltd.) in the logarithmic growth phase were inoculated (30,000 cells/well) in 1640 medium containing 10% of FBS, and adhered in a 96-well plate overnight (5% CO2, 37° C.). […] The cell culture was stopped with cell lysate. The level of phosphorylated ERK in KYSE-520 cells was determined by a method based on homogeneous time-resolved fluorescence HTRF (Cisbio, 64ERKPEG). The fluorescence values (Ex337 nm/Em625/665 nm) were read on the compatible HTRF reader (MD SpectraMax).

KYSE-520 cells = assay: KYSE-520 cell proliferation experiment (CellTiter-Glo, 7 days); format: cell-based; conditions: Homo sapiens
Experimental: The treated cell plate was incubated at 37° C., 5% CO2 for 7 days. CellTiter-Glo (Promega, G7573) was used to determine the number of viable cells in each well of the treated plate. 100 μL of the detection reagent was added to each well, and the plate was incubated at room temperature for 10 minutes. Then, the […] in each well was measured with Envision plate reader (PerkinElmer). […] The IC50 value was further calculated as the compound concentration required for 50% proliferation inhibition in the best-fit curve with […].

[1] = Pharmacokinetics assay in rats; format: in vivo, SD rats; conditions: rat; for AUC: read-out: Area under curve AUC; for half-life: read-out: Half-life T1/2 (converted)
Experimental: Rats were used as test animals. The drug concentration in plasma at different time points was determined by LC/MS/MS method after intravenous administration or intragastrical administration of the compound of the present invention to rats. The pharmacokinetic behavior of the compound of the present invention was studied and evaluated in rats.
The atropisomer with a RT of 1.495 minutes in Examples 3 and 4, compounds of Example 17, Example 41 and Example 43.
Healthy male SD rats (6-8 weeks old), 3 rats per group.
Intravenous administration: A certain amount of the test compound was weighed, to which 10% by volume of N,N-dimethylacetamide, 33% by volume of triethylene glycol and 57% by volume of water were added to prepare a 1 mg/mL colorless, clear and transparent solution;
Intragastrical administration: A certain amount of the test compound was weighed, to which 0.5% by mass of hypromellose, 0.1% by volume of Tween 80 and 99.4% by volume of water were added to prepare a 1 mg/mL white suspension.
After an overnight fast, the SD rats were intravenously administered the test compound at an administration dose of 1 mg/kg, or intragastrically administered the test compound at an administration dose of 5 mg/kg.
(§1) The rats were intravenously administered the compound of the present invention. 0.2 ml of blood was taken from the jugular vein at 0.083, 0.25, 0.5, 1, 2, 4, 8 and 24 hours after the administration. The samples were placed in tubes containing EDTA-K2, and centrifuged at 4000 rpm and 4° C. for 5 minutes to separate the blood plasma. The plasma samples were stored at −75° C.
as §1, with “Or, the rats” for “The rats”, “were intragastrically” for “were intravenously”, “at” for “at 0.083,”
The content of the test compound in the plasma of rat after intragastrical administration of the test compound at different concentrations was determined: 50 μL of rat plasma at each time after administration was taken, to which 200 μL of a solution (50 ng/mL) of internal standard dexamethasone in acetonitrile was added. The plasma was vortex-mixed for 30 seconds, and centrifuged at 4700 rpm and 4° C. for 15 minutes. The supernatant was taken from the plasma samples, and a three-fold dilution was carried out by adding water. 2.0 μL of the supernatant was used for LC/MS/MS analysis.

[2] = molecular target: T1, SHP2 wild-type phosphatase (recombinantly expressed full-length SHP2, aa 1-593) (Homo sapiens, UniProt Q06124); assay: In vitro activity on SHP2 wild-type phosphatase (DiFMUP fluorescence); conditions: wild-type full-length SHP2, activated polypeptide IRS1 0.5 nM, DiFMUP 30 μM;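 further: enzyme preincubated at room temperature, then DiFMUP reaction run at room temperature and halted with SDS, potency derived from a logistic curve fit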
T1 sequence (Q06124 1-593): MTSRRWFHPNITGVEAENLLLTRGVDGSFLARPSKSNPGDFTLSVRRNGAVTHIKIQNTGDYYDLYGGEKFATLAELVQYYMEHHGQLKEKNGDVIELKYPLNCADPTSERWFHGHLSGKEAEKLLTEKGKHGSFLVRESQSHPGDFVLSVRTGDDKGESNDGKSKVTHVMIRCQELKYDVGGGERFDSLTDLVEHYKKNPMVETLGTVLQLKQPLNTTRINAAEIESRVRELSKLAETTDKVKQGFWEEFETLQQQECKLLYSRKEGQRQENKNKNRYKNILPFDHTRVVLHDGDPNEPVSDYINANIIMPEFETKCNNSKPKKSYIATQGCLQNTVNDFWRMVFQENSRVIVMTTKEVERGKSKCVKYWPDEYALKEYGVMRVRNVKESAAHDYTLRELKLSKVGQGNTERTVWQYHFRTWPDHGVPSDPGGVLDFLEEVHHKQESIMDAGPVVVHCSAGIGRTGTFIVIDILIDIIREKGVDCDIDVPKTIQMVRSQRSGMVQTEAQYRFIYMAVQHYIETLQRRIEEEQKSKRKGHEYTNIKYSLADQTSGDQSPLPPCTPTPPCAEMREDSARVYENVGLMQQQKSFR
Experimental: 0.2 nM recombinantly expressed full-length SHP2 (aa 1-593), 0.5 nM activated polypeptide IRS1 with double phosphorylation sites (sequence: H2N-LN(pY)IDLDLY(dPEG8)LST(pY)ASINFQK-amide) and a series of concentrations of the test compound (final concentrations were 1 μM, 0.3 μM, 0.1 μM, 0.03 μM, 0.01 μM, 0.003 μM, 0.001 μM, 0.0003 μM, 0.0001 μM, 0.00003 μM) were added to the phosphatase reaction solution (60 mM HEPES, pH 7.5 0.005% Brij-35, 75 mM NaCl, 75 mM KCl, 1 mM EDTA, 5 mM DTT). The reaction solution was shaked (350 rpm) at room temperature for 30 minutes. The reaction substrate DiFMUP with a final concentration of 30 μM was added, and the reaction solution was reacted at room temperature for 30 minutes. The phosphatase reaction was stopped by adding 5 μL of stop solution (60 mM HEPES, pH 7.5, 0.2% SDS). Ex358 nm/Em455 fluorescence value was read on the fluorescence plate reader MD SpectraMax.
The IC50 value of the compound was calculated using the four-parameter logit method. In the following formula, x represents the logarithmic form of the compound concentration, and F(x) represents the effect value (the inhibition rate of cell proliferation under the given concentration condition): F(x)=((A−D)/(1+((x/C)^B)))+D. A, B, C and D are four parameters. Different concentrations correspond to different inhibition rates, based on which an inverse curve was plotted, and the IC50 of the inhibitor was calculated from the curve. The IC50 of the compound was calculated with Primer premier 6.0.

hERG potassium channel = molecular target: T2, hERG potassium channel (Homo sapiens, UniProt Q12809); assay: hERG current inhibition experiment (manual patch clamp, CHO hERG cells); format: cell-based; conditions: whole-cell patch clamp, tail current
T2 construct: host or cells: CHO hERG cells
T2 sequence (Q12809 whole entry): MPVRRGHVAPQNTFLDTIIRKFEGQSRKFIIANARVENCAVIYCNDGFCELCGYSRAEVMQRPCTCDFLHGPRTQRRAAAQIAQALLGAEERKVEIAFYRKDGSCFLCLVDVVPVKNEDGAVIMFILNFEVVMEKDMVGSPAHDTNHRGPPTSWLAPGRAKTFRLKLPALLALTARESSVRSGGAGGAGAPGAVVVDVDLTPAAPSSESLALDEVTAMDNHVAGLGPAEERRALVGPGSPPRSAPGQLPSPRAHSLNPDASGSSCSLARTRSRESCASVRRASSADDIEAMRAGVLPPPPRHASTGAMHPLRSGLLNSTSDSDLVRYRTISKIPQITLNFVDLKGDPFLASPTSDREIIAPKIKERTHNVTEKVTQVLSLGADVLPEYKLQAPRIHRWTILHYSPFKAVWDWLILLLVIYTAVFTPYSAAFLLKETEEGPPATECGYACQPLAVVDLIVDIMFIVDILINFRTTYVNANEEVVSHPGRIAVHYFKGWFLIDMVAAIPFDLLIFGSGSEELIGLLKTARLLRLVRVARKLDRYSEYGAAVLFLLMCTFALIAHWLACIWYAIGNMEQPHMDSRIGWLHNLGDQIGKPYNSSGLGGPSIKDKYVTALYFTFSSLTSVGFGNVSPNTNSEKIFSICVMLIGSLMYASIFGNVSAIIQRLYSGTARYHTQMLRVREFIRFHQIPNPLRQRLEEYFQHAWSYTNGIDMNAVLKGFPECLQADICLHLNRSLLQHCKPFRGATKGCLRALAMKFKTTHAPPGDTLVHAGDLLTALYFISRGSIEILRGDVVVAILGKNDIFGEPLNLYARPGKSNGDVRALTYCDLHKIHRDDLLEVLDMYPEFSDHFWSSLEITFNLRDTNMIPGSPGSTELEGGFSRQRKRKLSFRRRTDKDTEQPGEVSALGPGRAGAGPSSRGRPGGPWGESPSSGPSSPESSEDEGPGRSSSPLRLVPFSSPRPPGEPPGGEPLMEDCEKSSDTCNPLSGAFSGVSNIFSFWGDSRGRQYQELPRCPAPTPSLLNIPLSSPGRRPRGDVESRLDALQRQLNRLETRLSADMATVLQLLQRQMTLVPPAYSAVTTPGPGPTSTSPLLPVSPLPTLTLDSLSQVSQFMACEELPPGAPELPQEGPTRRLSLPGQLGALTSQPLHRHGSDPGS
Experimental: In this experiment, whole-cell current recording was performed using a manual patch clamp system (HEKA EPC-10 signal amplification and digital conversion system, purchased from HEKA Electronic, Germany). The round glass slide of which surface CHO hERG cells (provided by Sophion Bioscience Inc., Denmark, the cell generation number was P21) were grown on was placed in an electrophysiological recording slot under an inverted microscope. The recording slot was continuously perfused with extracellular fluid (approximately 1 mL per minute). Conventional whole-cell patch clamp current recording technique was used in the experiment. The experiments were performed at normal room temperature (˜25° C.). The cells were clamped at a voltage of −80 mV. Cell patch clamp voltage was depolarized to +20 mV to activate hERG potassium channel, and to −50 mV after 5 seconds to eliminate inactivation and generate tail currents. The tail current peak was used as a value of hERG current. When the hERG potassium current recorded in the above steps became steady under continuous perfusion of the extracellular fluid in the recording slot, the drug to be tested could be added to the perfusion, until the inhibition effect of the drug on hERG current reached a steady state. Generally, the overlapping of most recent three consecutive current recording lines was used as a criterion to determine whether the state was stable. After reaching the steady state, the recording slot was perfused with extracellular fluid until the hERG current returned to the value before the drug adding. The test data was analyzed by HEKA Patchmaster (V2x73.2), Microsoft Excel and the data analysis software provided by Graphpad Prism 5.0.

SMILES	IC50 (p-ERK in KYSE-520 cells; Homo sapiens, KYSE-520, 2 h)	IC50 [2]	IC50 (KYSE-520 cells)	further results
Cc1nc(N2CCC3(CC2)CO[C@@H](C)[C@H]3N)n2ccnc2c1-c1cccc(Cl)c1Cl (single isomer, unassigned) [The atropisomer with a RT of 1.495 minutes in Examples 3 and 4]	39 nM	0.7 nM	126 nM	AUC ([1]; male, SD, plasma, IV 1 mg/kg): 3130 ± 300 ng·h/mL; clearance ([1]; male, SD, plasma, IV 1 mg/kg, read-out: Clearance CL_obs): 5.13 ± 0.59 mL/min/kg; half-life ([1]; male, SD, plasma, IV 1 mg/kg): 330 ± 35.4 min; bioavailability ([1]; male, SD, plasma, PO 5 mg/kg vs IV 1 mg/kg, read-out: Bioavailability F): 82.6 ± 17.8%; AUC ([1]; male, SD, plasma, PO 5 mg/kg): 12500 ± 2470 ng·h/mL; half-life ([1]; male, SD, plasma, PO 5 mg/kg): 371 ± 36.6 min; Cmax ([1]; male, SD, plasma, PO 5 mg/kg, read-out: Maximum plasma concentration Cmax): 1220 ± 220 ng/mL; Apparent distribution volume Vss_obs ([1]; IV 1 mg/kg): 2030 ± 150 mL/kg
Cc1nc(N2CCC3(CCC[C@H]3N)CC2)n2ccnc2c1-c1cccc(Cl)c1Cl [Example 1, (R)-8-(8-(2,3-Dichlorophenyl)-7-methylimidazo[1,2-c]pyrimidin-5-yl)-8-azaspiro[4.5]decan-1-amine]	383 nM	4.5 nM	723 nM	IC50 (hERG potassium channel): 2130 nM
Cc1nc(N2CCC3(CC2)CO[C@@H](C)[C@H]3N)n2ccnc2c1-c1cccc(Cl)c1Cl [Example 2, (3S,4S)-8-(8-(2,3-Dichlorophenyl)-7-methylimidazo[1,2-c]pyrimidin-5-yl)-3-methyl-2-oxa-8-azaspiro[4.5]decan-4-amine]	40.5 nM	1.1 nM	186 nM	IC50 (hERG potassium channel): 2610 nM
Nc1nc(N2CCC3(CC2)Cc2ncccc2[C@H]3N)n2ccnc2c1Sc1cccnc1C(F)(F)F [Example 28, (S)-1′-(7-Amino-8-((2-(trifluoromethyl)pyridin-3-yl)thio)imidazo[1,2-c]pyrimidin-5-yl)-5,7-dihydrospiro[cyclopenta[b]pyridine-6,4′-piperidin]-5-amine]	8.6 nM	2.6 nM	21.6 nM	
N[C@@H]1c2cccnc2CC12CCN(c1ncc(Sc3cccnc3C(F)(F)F)c3nccn13)CC2 [Example 34, (S)-1′-(8-((2-(Trifluoromethyl)pyridin-3-yl)thio)imidazo[1,2-c]pyrimidin-5-yl)-5,7-dihydro spiro[cyclopenta[b]pyridine-6,4′-piperidin]-5-amine]	5.4 nM	2.8 nM	92.5 nM	
CNc1nccc(Sc2cnc(N3CCC4(CC3)Cc3ncccc3[C@H]4N)n3ccnc23)c1F [Example 37, (S)-1′-(8-((3-Fluoro-2-(methylamino)pyridin-4-yl)thio)imidazo[1,2-c]pyrimidin-5-yl)-5,7-dihydrospiro[cyclopenta[b]pyridine-6,4′-piperidin]-5-amine]	8.6 nM	4 nM	37 nM	
N[C@@H]1c2cccnc2CC12CCN(c1ncc(Sc3ccnc(N4CCOCC4)c3Cl)c3nccn13)CC2 [Example 40, (S)-1′-(8-((3-Chloro-2-morpholinopyridin-4-yl)thio)imidazo[1,2-c]pyrimidin-5-yl)-5,7-dihydrospiro[cyclopenta[b]pyridine-6,4′-piperidin]-5-amine]	6.5 nM	1.4 nM	27.3 nM	

More lines, main results first:

IC50 (p-ERK in KYSE-520 cells; Homo sapiens, KYSE-520, 2 h)	IC50 [2]	SMILES	IC50 (KYSE-520 cells)	further results
8 nM	1.7 nM	Nc1nccc(Sc2cnc(N3CCC4(CC3)Cc3ncccc3[C@H]4N)n3ccnc23)c1Cl [Example 27, (S)-1′-(8-((2-Amino-3-chloropyridin-4-yl)thio)imidazo[1,2-c]pyrimidin-5-yl)-5,7-dihydrospiro[cyclopenta[b]pyridine-6,4′-piperidin]-5-amine]	31.5 nM	
6.1 nM	1.4 nM	Nc1nc(N2CCC3(CC2)Cc2ccccc2[C@H]3N)n2ccnc2c1Sc1cccnc1C(F)(F)F [Example 30, (S)-1′-(7-Amino-8-((2-(trifluoromethyl)pyridin-3-yl)thio)imidazo[1,2-c]pyrimidin-5-yl)-1,3-dihydrospiro[indene-2,4′-piperidin]-1-amine]	8.9 nM	
6.5 nM	3.4 nM	N[C@@H]1c2ccccc2CC12CCN(c1ncc(Sc3cccnc3C(F)(F)F)c3nccn13)CC2 [Example 31, (S)-1′-(8-((2-(Trifluoromethyl)pyridin-3-yl)thio)imidazo[1,2-c]pyrimidin-5-yl)-1,3-dihydro spiro[indene-2,4′-piperidin]-1-amine]	52 nM	
2.7 nM	1 nM	Nc1nccc(Sc2cnc(N3CCC4(CC3)Cc3ccccc3[C@H]4N)n3ccnc23)c1Cl [Example 32, (S)-1′-(8-((2-Amino-3-chloropyridin-4-yl)thio)imidazo[1,2-c]pyrimidin-5-yl)-1,3-dihydrospiro[indene-2,4′-piperidin]-1-amine]	12.9 nM	
7.9 nM	1 nM	CC1(O)CN(c2nccc(Sc3cnc(N4CCC5(CC4)Cc4ncccc4[C@H]5N)n4ccnc34)c2Cl)C1 [Example 39, (S)-1-(4-((5-(5-Amino-5,7-dihydrospiro[cyclopenta[b]pyridine-6,4′-piperidin]-1′-yl)imidazo[1,2-c]pyrimidin-8-yl)thio)-3-chloropyridin-2-yl)-3-methylazetidin-3-ol]	24.1 nM	IC50 (p-ERK in KYSE-520 cells; 2 hours): 10.3 nM
